Values quoted from earlier work as cited in US20080009496A1, “MUTAGENIC HETEROCYCLES” (Koronis Pharmaceuticals, Inc., priority 2003, published 2008).

Tests used:
HIV = settings: in vitro
[1] = deamination product of 5-aza-dC

| Structure (SMILES) | inhibition of HIV replication (HIV) | antineoplastic activity [1] |
| --- | --- | --- |
| Nc1ncn([C@H]2C[C@H](O)[C@@H](CO)O2)c(=O)n1 [5-aza-dC, 5-aza-2′-deoxycytidine] | inhibit HIV replication in vitro | – |
| O=c1ncn([C@H]2C[C@H](O)[C@@H](CO)O2)c(=O)[nH]1 [5-aza-dU, 5-aza-2′-deoxyuridine] | – | loss of antineoplastic activity |
